Source: ChEMBL document CHEMBL4184141, “Investigating the Antibacterial Activity of Biphenylthiazoles against Methicillin- and Vancomycin-Resistant Staphylococcus aureus (MRSA and VRSA)” (J Med Chem, 2017)
≈ marks a conversion by molar mass, not a printed value. Calls of active or inactive are those of the source. The rule behind the calls is not given here.

Columns and labels:
Staphylococcus aureus [1] = assay: Potentiation of vancomycin-induced antibacterial activity against vancomycin-resistant Staphylococcus aureus VRS10 assessed as reduction in vancomycin MIC after 20 hrs by checkerboard assay; format: functional
[2] = Apparent permeability of the compound across basolateral side to apical side in human Caco2 cells by LC-MS/MS analysis; format: ADME, cell-based; settings: Caco-2
Staphylococcus aureus [3] = assay: Bactericidal activity against Staphylococcus aureus RN4220 up to 18 hrs by broth microdilution assay; format: functional; settings: RN4220, 18 h, read-out: MBC99.9
[4] = Efflux ratio of permeability from basolateral to apical side over apical to basolateral side of human Caco2 cells by LC-MS/MS analysis; format: ADME, cell-based; settings: Caco-2
Staphylococcus aureus [5] = assay: Potency index, ratio of vancomycin MIC to compound MIC for antibacterial activity against vancomycin-resistant Staphylococcus aureus VRS11a; format: functional
Staphylococcus aureus [6] = assay: Synergistic antibacterial activity against vancomycin-resistant Staphylococcus aureus VRS10 after 20 hrs in presence of vancomycin by checkerboard assay; format: functional; settings: VRS10, 20 h
Staphylococcus aureus [7] = assay: Bactericidal activity against methicillin-resistant Staphylococcus aureus USA300 assessed as time required to reduce bacterial load to 0 at 4 times MIC by time-kill assay; format: functional
Staphylococcus aureus [8] = assay: Potency index, ratio of vancomycin MIC to compound MIC for antibacterial activity against vancomycin-resistant Staphylococcus aureus VRS10; format: functional
Staphylococcus aureus [9] = assay: Antibacterial activity against Staphylococcus aureus RN4220 up to 20 hrs by broth microdilution assay; format: functional; settings: RN4220, 20 h
[10] = Intrinsic clearance in human liver microsomes in absence of NADPH by LC-MS/MS analysis; format: ADME, microsome; settings: read-out: CLH
Staphylococcus aureus [11] = assay: Antibacterial activity against methicillin-resistant Staphylococcus aureus USA400 NRS123 up to 20 hrs by broth microdilution assay; format: functional; settings: USA400 NRS123, 20 h
Staphylococcus aureus [12] = assay: Antibacterial activity against vancomycin-resistant Staphylococcus aureus VRS12 up to 20 hrs by broth microdilution assay; format: functional; settings: VRS12, 20 h
[13] = Intrinsic clearance in human liver microsomes in presence of NADPH by LC-MS/MS analysis; format: ADME, microsome; settings: read-out: CLH
Staphylococcus aureus [14] = assay: Bactericidal activity against vancomycin-resistant Staphylococcus aureus VRS11a up to 18 hrs by broth microdilution assay; format: functional; settings: read-out: MBC99.9
Staphylococcus aureus [15] = assay: Antibacterial activity against methicillin-resistant Staphylococcus aureus 2658 RCMB up to 20 hrs by broth microdilution assay; format: functional
[16] = Half life in human liver microsomes in presence of NADPH by LC-MS/MS analysis; format: ADME, microsome
Staphylococcus aureus [17] = assay: Potentiation of vancomycin-induced antibacterial activity against vancomycin-resistant Staphylococcus aureus VRS10 assessed as fold reduction in vancomycin MIC at 0.5 times MIC after 20 to 22 hrs; format: functional
HRT-18 cell line [18] = assay: Cytotoxicity against human HRT18 cells up to 32 microg/ml after 6 hrs by MTS assay; format: cell-based; settings: hrt-18, 6 h
Staphylococcus aureus [19] = assay: Potency index, ratio of vancomycin MIC to compound MIC for antibacterial activity against vancomycin-resistant Staphylococcus aureus VRS12; format: functional
Staphylococcus aureus [20] = assay: Antibacterial activity against vancomycin-resistant Staphylococcus aureus VRS10 up to 20 hrs by broth microdilution assay; format: functional; settings: VRS10, 20 h
[21] = Half life in human liver microsomes in absence of NADPH by LC-MS/MS analysis; format: ADME, microsome
Staphylococcus aureus [22] = assay: Antibacterial activity against methicillin-resistant Staphylococcus aureus NRS119 up to 20 hrs by broth microdilution assay; format: functional; settings: NRS119, 20 h
Staphylococcus aureus [23] = assay: Bactericidal activity against methicillin-resistant Staphylococcus aureus NRS119 up to 18 hrs by broth microdilution assay; format: functional; settings: NRS119, 18 h, read-out: MBC99.9
Staphylococcus aureus [24] = assay: Bactericidal activity against vancomycin-resistant Staphylococcus aureus VRS12 up to 18 hrs by broth microdilution assay; format: functional; settings: VRS12, 18 h, read-out: MBC99.9
Pseudomonas aeruginosa = assay: Antibacterial activity against Pseudomonas aeruginosa ATCC 15442 up to 20 hrs by broth microdilution assay; format: functional; settings: ATCC 15442, 20 h
Staphylococcus aureus [25] = assay: Antibacterial activity against methicillin-resistant Staphylococcus aureus USA300 infected in Caenorhabditis elegans AU37 harboring (sek-1(km4);glp-4(bn2)I) mutant assessed as reduction in bacterial burden at 20 ug/ml after 18 hrs by microscopic analysis relative to control; format: functional; parameters: scale not given: the % may be the effect or the level left
Staphylococcus aureus [26] = assay: Potentiation of vancomycin-induced antibacterial activity against vancomycin-resistant Staphylococcus aureus VRS10 assessed as vancomycin MIC after 20 hrs by checkerboard assay; format: functional; settings: VRS10, 20 h
Enterococcus faecium = assay: Antibacterial activity against vancomycin-resistant Enterococcus faecium ATCC 700221 up to 20 hrs by broth microdilution assay; format: functional; settings: ATCC 700221, 20 h
Staphylococcus aureus [27] = assay: Bactericidal activity against vancomycin-resistant Staphylococcus aureus VRS10 up to 18 hrs by broth microdilution assay; format: functional; settings: VRS10, 18 h, read-out: MBC99.9
[28] = Aqueous solubility of the compound in PBS after 2 hrs by turbidimetric method; format: physicochemical
HRT-18 cell line [29] = assay: Cytotoxicity against human HRT18 cells at 64 microg/ml after 6 hrs by MTS assay; format: cell-based; settings: hrt-18, 6 h
Staphylococcus aureus [30] = assay: Bactericidal activity against methicillin-resistant Staphylococcus aureus USA400 NRS123 up to 18 hrs by broth microdilution assay; format: functional; settings: USA400 NRS123, 18 h, read-out: MBC99.9
Staphylococcus aureus [31] = assay: Antibacterial activity against vancomycin-resistant Staphylococcus aureus VRS11a up to 20 hrs by broth microdilution assay; format: functional
[32] = Selectivity index, ratio of cytotoxic concentration for human HRT18 cells to MIC for methicillin-resistant Staphylococcus aureus; format: toxicity; settings: read-out: Selectivity Index
HRT-18 cell line [33] = assay: Cytotoxicity against human HRT18 cells up to 64 microg/ml after 6 hrs by MTS assay; format: cell-based; settings: hrt-18, 6 h
Staphylococcus aureus [34] = assay: Bactericidal activity against methicillin-resistant Staphylococcus aureus USA300 assessed as time required for 3 log10CFU reduction in bacterial load at 4 times MIC by time kill assay; format: functional
Staphylococcus aureus [35] = assay: Antibacterial activity against methicillin-resistant Staphylococcus aureus USA300 at 4 times MIC after 12 hrs by time-kill assay; format: functional, organism-based

Compound: Cc1nc(-c2ccc(-c3ccccc3)cc2)sc1-c1ccnc(NC(=N)N2CCN(C)CC2)n1
- fractional inhibitory concentration index (FICI) (Staphylococcus aureus [1]): 1.02
- Papp B→A [2]: 1.7 ×10⁻⁶ cm/s
- MBC (Staphylococcus aureus [3]): 8 µg/mL (≈ 17 µM)
- efflux ratio [4]: > 2
- Ratio (Staphylococcus aureus [5]): 100
- MIC (Staphylococcus aureus [6]): 0.13 µg/mL
- Time (Staphylococcus aureus [7]): 2 h
- Ratio (Staphylococcus aureus [8]): 100
- MIC (Staphylococcus aureus [9]): 2 µg/mL (≈ 4.26 µM)
- microsomal CLint [10]: < 9.6 µL/min/mg
- MIC (Staphylococcus aureus [11]): 1 µg/mL (≈ 2.13 µM)
- MIC (Staphylococcus aureus [12]): 2 µg/mL (≈ 4.26 µM)
- microsomal CLint [13]: 15.3 µL/min/mg
- MBC (Staphylococcus aureus [14]): 8 µg/mL (≈ 17 µM)
- MIC (Staphylococcus aureus [15]): 0.39 µg/mL (≈ 0.83 µM)
- half-life [16]: 2.52 h
- Activity (Staphylococcus aureus [17]): inactive
- Activity (HRT-18 cell line [18]): Non-Toxic
- Ratio (Staphylococcus aureus [19]): 8
- MIC (Staphylococcus aureus [20]): 4 to 8 µg/mL (≈ 8.52 to 17 µM)
- half-life [21]: > 4 h
- MIC (Staphylococcus aureus [22]): 2 µg/mL (≈ 4.26 µM)
- MBC (Staphylococcus aureus [23]): 4 µg/mL (≈ 8.52 µM)
- MBC (Staphylococcus aureus [24]): 8 µg/mL (≈ 17 µM)
- MIC (Pseudomonas aeruginosa): > 64 µg/mL
- Activity (Staphylococcus aureus [25]): 65%
- MIC (Staphylococcus aureus [26]): 128 to 256 µg/mL
- MIC (Enterococcus faecium): 16 µg/mL (≈ 34.1 µM)
- MBC (Staphylococcus aureus [27]): 8 µg/mL (≈ 17 µM)
- solubility kinetic at 2 h [28]: 2.3 µM (≈ 1.08 µg/mL)
- Activity (HRT-18 cell line [29]): Toxic
- MBC (Staphylococcus aureus [30]): 2 µg/mL (≈ 4.26 µM)
- MIC (Staphylococcus aureus [31]): 4 µg/mL (≈ 8.52 µM)

Compound: Cc1nc(-c2ccc(-c3ccccc3)cc2)sc1-c1ccnc(NN2CCN(C)CC2)n1
- fractional inhibitory concentration index (FICI) (Staphylococcus aureus [1]): 0.51 - 0.56
- MBC (Staphylococcus aureus [3]): 8 µg/mL (≈ 18.1 µM)
- MIC (Staphylococcus aureus [6]): 4 µg/mL
- MIC (Staphylococcus aureus [9]): 4 µg/mL (≈ 9.04 µM)
- MIC (Staphylococcus aureus [11]): 4 µg/mL (≈ 9.04 µM)
- MIC (Staphylococcus aureus [12]): 8 µg/mL (≈ 18.1 µM)
- MBC (Staphylococcus aureus [14]): 8 µg/mL (≈ 18.1 µM)
- MIC (Staphylococcus aureus [15]): 0.78 µg/mL (≈ 1.76 µM)
- fold change (FC) (Staphylococcus aureus [17]): 128
- selectivity ratio [32]: 16
- MIC (Staphylococcus aureus [20]): 8 µg/mL (≈ 18.1 µM)
- MIC (Staphylococcus aureus [22]): 4 µg/mL (≈ 9.04 µM)
- MBC (Staphylococcus aureus [23]): 4 µg/mL (≈ 9.04 µM)
- MBC (Staphylococcus aureus [24]): 8 µg/mL (≈ 18.1 µM)
- Activity (HRT-18 cell line [33]): Non-Toxic
- MIC (Pseudomonas aeruginosa): > 64 µg/mL
- Activity (Staphylococcus aureus [25]): 46%
- MIC (Staphylococcus aureus [26]): 4 to 8 µg/mL
- MIC (Enterococcus faecium): > 64 µg/mL
- MBC (Staphylococcus aureus [27]): 8 µg/mL (≈ 18.1 µM)
- MBC (Staphylococcus aureus [30]): 4 µg/mL (≈ 9.04 µM)
- MIC (Staphylococcus aureus [31]): 8 µg/mL (≈ 18.1 µM)

Compound: C/C(=N\NC(=N)N)c1sc(-c2ccc(-c3ccccc3)cc2)nc1C
- Papp B→A [2]: 1.2 ×10⁻⁶ cm/s
- efflux ratio [4]: > 2
- MIC (Staphylococcus aureus [15]): 1.6 to 2.4 µg/mL (≈ 4.58 to 6.87 µM)
- solubility kinetic at 2 h [28]: 2.7 µM (≈ 0.944 µg/mL)
- Time (Staphylococcus aureus [34]): 10 h

Compound: CNC(=N)Nc1nccc(-c2sc(-c3ccc(-c4ccccc4)cc3)nc2C)n1
- MBC (Staphylococcus aureus [3]): 32 µg/mL (≈ 79.9 µM)
- MIC (Staphylococcus aureus [9]): 8 µg/mL (≈ 20 µM)
- MIC (Staphylococcus aureus [11]): 16 µg/mL (≈ 39.9 µM)
- MIC (Staphylococcus aureus [12]): 64 µg/mL (≈ 160 µM)
- MBC (Staphylococcus aureus [14]): 64 µg/mL (≈ 160 µM)
- MIC (Staphylococcus aureus [15]): 1.56 µg/mL (≈ 3.9 µM)
- MIC (Staphylococcus aureus [20]): 32 µg/mL (≈ 79.9 µM)
- MIC (Staphylococcus aureus [22]): 8 µg/mL (≈ 20 µM)
- MBC (Staphylococcus aureus [23]): 16 µg/mL (≈ 39.9 µM)
- MBC (Staphylococcus aureus [24]): 64 µg/mL (≈ 160 µM)
- MBC (Staphylococcus aureus [27]): 64 µg/mL (≈ 160 µM)
- MBC (Staphylococcus aureus [30]): 16 µg/mL (≈ 39.9 µM)
- MIC (Staphylococcus aureus [31]): 32 µg/mL (≈ 79.9 µM)

Compound: Cc1nc(-c2ccc(-c3ccccc3)cc2)sc1-c1ccnc(NC(=N)N2CCOCC2)n1
- MBC (Staphylococcus aureus [3]): 32 µg/mL (≈ 70.1 µM)
- Activity (Staphylococcus aureus [35]): inactive
- MIC (Staphylococcus aureus [9]): 8 µg/mL (≈ 17.5 µM)
- MIC (Staphylococcus aureus [11]): 16 µg/mL (≈ 35 µM)
- MIC (Staphylococcus aureus [12]): 64 µg/mL (≈ 140 µM)
- MBC (Staphylococcus aureus [14]): 64 µg/mL (≈ 140 µM)
- MIC (Staphylococcus aureus [15]): 0.78 µg/mL (≈ 1.71 µM)
- Activity (HRT-18 cell line [18]): Non-Toxic
- MIC (Staphylococcus aureus [20]): 32 µg/mL (≈ 70.1 µM)
- MIC (Staphylococcus aureus [22]): 8 µg/mL (≈ 17.5 µM)
- MBC (Staphylococcus aureus [23]): 16 µg/mL (≈ 35 µM)
- MBC (Staphylococcus aureus [24]): 64 µg/mL (≈ 140 µM)
- MIC (Pseudomonas aeruginosa): > 64 µg/mL
- MIC (Enterococcus faecium): 8 µg/mL (≈ 17.5 µM)
- MBC (Staphylococcus aureus [27]): 64 µg/mL (≈ 140 µM)
- Activity (HRT-18 cell line [29]): Toxic
- MBC (Staphylococcus aureus [30]): 16 µg/mL (≈ 35 µM)
- MIC (Staphylococcus aureus [31]): 32 µg/mL (≈ 70.1 µM)
